In PubChem BioAssay (NCI):
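Step 1: Grow cells in 96-well plates. Step 2: Expose to compound for 48 hours at 5 concentrations. Step 3: Interpolate endpoints linearly; if unreached, use highest concentration. Definition used: TGI = concentration required for complete inhibition of growth.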

Assays:
Test in all cases: NCI-60 cell line screen, 48 h
[1] = test system: 786-0 renal
[2] = test system: A498 renal
[3] = test system: A549 NSCLC
[4] = test system: ACHN renal
[5] = test system: BT-549 breast
[6] = test system: CAKI-1 renal
[7] = test system: COLO 205 colon
[8] = test system: DU-145 prostate
[9] = test system: EKVX NSCLC
[10] = test system: HCC-2998 colon
[11] = test system: HCT-116 colon
[12] = test system: HCT-15 colon
[13] = test system: HL-60(TB) leukemia
[14] = test system: HOP-62 NSCLC
[15] = test system: HOP-92 NSCLC
[16] = test system: HS 578T breast
[17] = test system: HT29 colon
[18] = test system: IGROV1 ovarian
[19] = test system: K-562 leukemia
[20] = test system: KM12 colon
[21] = test system: LOX IMVI melanoma
[22] = test system: M14 melanoma
[23] = test system: MALME-3M melanoma
[24] = test system: MCF7 breast
[25] = test system: MDA-MB-231 breast
[26] = test system: MDA-N
[27] = test system: MOLT-4 leukemia
[28] = test system: NCI-H226 lung
[29] = test system: NCI-H23 lung
[30] = test system: NCI-H460 lung
[31] = test system: NCI-H522 lung
[32] = test system: NCI/ADR-RES ovarian
[33] = test system: OVCAR-3 ovarian
[34] = test system: OVCAR-4 ovarian
[35] = test system: OVCAR-5 ovarian
[36] = test system: OVCAR-8 ovarian
[37] = test system: PC-3 prostate
[38] = test system: RPMI-8226 leukemia
[39] = test system: RXF 393 renal
[40] = test system: SF-268 CNS
[41] = test system: SF-295 CNS
[42] = test system: SF-539 CNS
[43] = test system: SK-MEL-2 melanoma
[44] = test system: SK-MEL-28 melanoma
[45] = test system: SK-MEL-5 melanoma
[46] = test system: SK-OV-3 ovarian
[47] = test system: SN12C renal
[48] = test system: SNB-19 CNS
[49] = test system: SNB-75 CNS
[50] = test system: SR leukemia
[51] = test system: SW-620 colon
[52] = test system: T-47D breast
[53] = test system: TK-10 renal
[54] = test system: U251 CNS
[55] = test system: UACC-257 melanoma
[56] = test system: UACC-62 melanoma
[57] = test system: UO-31 renal

## N#CC1=C(N)OC2=C(CCCc3ccc([N+](=O)[O-])cc32)C1c1ccccc1 (configuration not stated)
[1]
  TGI: 26.9 µM
[2]
  TGI: 10.5 µM
[3]
  TGI: > 100 µM
[4]
  TGI: 45.2 µM
[5]
  TGI: 29.7 µM
[6]
  TGI: > 100 µM
[7]
  TGI: 13.7 µM
[8]
  TGI: 15.4 µM
[9]
  TGI: 35.2 µM
[10]
  TGI: 6.41 µM
[11]
  TGI: 16 µM
[12]
  TGI: 16.7 µM
[13]
  TGI: 4.19 µM
[14]
  TGI: 17.4 µM
[15]
  TGI: 44.9 µM
[16]
  TGI: > 100 µM
[17]
  TGI: 12.2 µM
[18]
  TGI: 23.7 µM
[19]
  TGI: 13.8 µM
[20]
  TGI: 14.8 µM
[21]
  TGI: 19.6 µM
[22]
  TGI: 12.4 µM
[23]
  TGI: 20.6 µM
[24]
  TGI: 15.2 µM
[25]
  TGI: > 100 µM
[26]
  TGI: 5.38 µM
[27]
  TGI: 18.7 µM
[28]
  TGI: 31 µM
[29]
  TGI: 36 µM
[30]
  TGI: 23.1 µM
[31]
  TGI: 10.9 µM
[32]
  TGI: 7.45 µM
[33]
  TGI: 6.33 µM
[34]
  TGI: > 100 µM
[35]
  TGI: 43.1 µM
[36]
  TGI: 22.4 µM
[37]
  TGI: 44.7 µM
[38]
  TGI: 10.9 µM
[39]
  TGI: 8.88 µM
[40]
  TGI: 21.9 µM
[41]
  TGI: 13.9 µM
[42]
  TGI: 12.7 µM
[43]
  TGI: 34.1 µM
[44]
  TGI: 22.4 µM
[45]
  TGI: 13 µM
[46]
  TGI: 58.5 µM
[47]
  TGI: 20.4 µM
[48]
  TGI: 45.2 µM
[49]
  TGI: > 100 µM
[50]
  TGI: 9.56 µM
[51]
  TGI: 15.7 µM
[52]
  TGI: 30.5 µM
[53]
  TGI: 49.1 µM
[54]
  TGI: 17.5 µM
[55]
  TGI: 24.6 µM
[56]
  TGI: 6.12 µM
[57]
  TGI: 20.9 µM
